Ten compounds from US9650361B2, “N-(pyridin-2-yl)pyrimidin-4-amine derivatives containing a sulfoximine group” (BAYER PHARAM AKTIENGESELLSCHAFT, priority 2012, dated 2017) can be followed below.

Like-named read-outs stand apart in the source and are kept apart here.

The target in assay [1] is T1, CDK9/CycT1 (Homo sapiens, UniProt P50750).
T1 construct: Recombinant full-length His-tagged human CDK9 and CycT1; His; purchased Invitrogen PV4131; host or cells: insect cells
The experiment in a line: CDK9/CycT1 kinase assay (Method 1a). The conditions noted are these: 10 μM ATP. The format is biochemical. The text has this: 1a. CDK9/CycT1 Kinase Assay:
CDK9/CycT1-inhibitory activity of compounds of the present invention was quantified employing the CDK9/CycT1 TR-FRET assay as described in the following paragraphs:
Recombinant full-length His-tagged human CDK9 and CycT1, expressed in insect cells and purified by Ni-NTA affinity chromatography, were purchased from Invitrogen (Cat. No PV4131). As substrate for the kinase reaction biotinylated peptide biotin-Ttds-YISPLKSPYKISEG (C-terminus in amid form) was used which can be purchased e.g. form the company JERINI Peptide Technologies (Berlin, Germany) For the assay 50 nl of a 100 fold concentrated solution of the test compound in DMSO was pipetted into a black low volume 384 well microtiter plate (Greiner Bio-One, Frickenhausen, Germany), 2 μl of a solution of CDK9/CycT1 in aqueous assay buffer [50 mM Tris/HCl pH 8.0, 10 mM MgCl2, 1.0 mM dithiothreitol, 0.1 mM sodium ortho-vanadate, 0.01% (v/v) Nonidet-P40 (Sigma)] were added and the mixture was incubated for 15 min at 22° C. to allow pre-binding of the test compounds to the enzyme before the start of the kinase reaction. Then the kinase reaction was started by the addition of 3 μl of a solution of adenosine-tri-phosphate (ATP, 16.7 μM=>final conc. in the 5 μl assay volume is 10 μM) and substrate (1.67 μM=>final conc. in the 5 μl assay volume is 1 μM) in assay buffer and the resulting mixture was incubated for a reaction time of 25 min at 22° C. The concentration of CDK9/CycT1 was adjusted depending of the activity of the enzyme lot and was chosen appropriate to have the assay in the linear range, typical concentrations were in the range of 1 μg/ml. The reaction was stopped by the addition of 5 μl of a solution of TR-FRET detection reagents (0.2 μM streptavidine-XL665 [Cisbio Bioassays, Codolet, France] and 1 nM anti-RB(pSer807/pSer811)-antibody from BD Pharmingen [#558389] and 1.2 nM LANCE EU-W1024 labeled anti-mouse IgG antibody [Perkin-Elmer, product no. AD0077]) in an aqueous EDTA-solution (100 mM EDTA, 0.2% (w/v) bovine serum albumin in 100 mM HEPES/NaOH pH 7.0).
The resulting mixture was incubated 1 h at 22° C. to allow the formation of complex between the phosphorylated biotinylated peptide and the detection reagents. Subsequently the amount of phosphorylated substrate was evaluated by measurement of the resonance energy transfer from the Eu-chelate to the streptavidine-XL. Therefore, the fluorescence emissions at 620 nm and 665 nm after excitation at 350 nm was measured in a HTRF reader, e.g. a Rubystar (BMG Labtechnologies, Offenburg, Germany) or a Viewlux (Perkin-Elmer). The ratio of the emissions at 665 nm and at […] was taken as the measure for the amount of phosphorylated substrate. The data were normalised (enzyme reaction without inhibitor=0% inhibition, all other assay components but no enzyme=100% inhibition).

The test system of assay [2] is HeLa-MaTu-ADR cells. Put plainly: Proliferation assay, HeLa-MaTu-ADR (Method 3). Type of assay: cell-based, human. Particulars: 4 days, crystal violet, read-out: Inhibition of HeLa-MaTu-ADR cell proliferation IC50. The procedure: (§1) Cultivated tumour cells (HeLa, human cervical tumour cells, ATCC CCL-2; NCI-H460, human non-small cell lung carcinoma cells, ATCC HTB-177; A2780, human ovarian carcinoma cells, ECACC #93112519; DU 145, hormone-independent human prostate carcinoma cells, ATCC HTB-81; HeLa-MaTu-ADR, multidrug-resistant human cervical carcinoma cells, EPO-GmbH Berlin; Caco-2, human colorectal carcinoma cells, ATCC HTB-37; B16F10, mouse melanoma cells, ATCC CRL-6475) were plated at a density of 5,000 cells/well (DU145, HeLa-MaTu-ADR), 3,000 cells/well (NCI-H460, HeLa), 2,500 cells/well (A2780), 1,500 cells/well (Caco-2), or 1,000 cells/well (B16F10) in a 96-well multititer plate in 200 μL of their respective growth medium supplemented 10% fetal calf serum. After 24 hours, the cells of one plate (zero-point plate) were stained with crystal violet (see below), while the medium of the other plates was replaced by fresh culture medium (200 μl), to which the test substances were added in various concentrations (0 μM, as well as in the range of 0.001-10 μM; the final concentration of the solvent dimethyl sulfoxide was 0.5%). The cells were incubated for 4 days in the presence of test substances. Cell proliferation was determined by staining the cells with crystal violet: the cells were fixed by adding 20 μl/measuring point of an 11% glutaric aldehyde solution for 15 minutes at room temperature. After three washing cycles of the fixed cells with water, the plates were dried at room temperature. The cells were stained by adding 100 μl/measuring point of a 0.1% crystal violet solution (pH 3.0). After three washing cycles of the stained cells with water, the plates were dried at room temperature. The dye was dissolved by adding 100 μl/measuring point of a 10% acetic acid solution. The extinction was determined by photometry at a wavelength of 595 nm. The change of cell number, in percent, was calculated by normalization of the measured values to the extinction values of the zero-point plate (=0%) and the extinction of the untreated (0 μm) cells (=100%). The IC50 values (inhibitory concentration at 50% of maximal effect) were determined by means of a 4 parameter fit.

In assay [3] the test system is DU145 cells. The experiment in a line: Proliferation assay, DU145 (Method 3). The format is cell-based, human. The conditions noted are these: 4 days, crystal violet, read-out: Inhibition of DU145 cell proliferation IC50. Here is the method:
as §1

The subject of assay [4] is MOLM-13 cells. Put plainly: Proliferation assay, MOLM-13 (Method 3). Type of assay: cell-based, human. Particulars: 72-hour exposure, Cell Titre-Glo, read-out: Inhibition of MOLM 13 cell proliferation IC50. Here is the method:
Non-adherent MOLM-13 human acute myeloid leukemia cells (DSMZ ACC 554) were seeded at a density of 5,000 cells/well in a 96-well multititer plate in 100 μL of growth medium supplemented 10% fetal calf serum. After 24 hours, cell viability of one plate (zero-point plate) was determined with the Cell Titre-Glo Luminescent Cell Viability Assay (Promega), while 50 μl of test compound containing medium was added to the wells of the other plates (final concentrations in the range of 0.001-10 μM and DMSO controls; the final concentration of the solvent dimethyl sulfoxide was 0.5%). Cell viability was assessed after 72-hour exposure with the Cell Titre-Glo Luminescent Cell Viability Assay (Promega). IC50 values (inhibitory concentration at 50% of maximal effect) were determined by means of a 4 parameter fit on measurement data which were normalized to vehicle (DMSO) treated cells (=100%) and measurement readings taken immediately before compound exposure (=0%).

T1 sequence (P50750 whole entry): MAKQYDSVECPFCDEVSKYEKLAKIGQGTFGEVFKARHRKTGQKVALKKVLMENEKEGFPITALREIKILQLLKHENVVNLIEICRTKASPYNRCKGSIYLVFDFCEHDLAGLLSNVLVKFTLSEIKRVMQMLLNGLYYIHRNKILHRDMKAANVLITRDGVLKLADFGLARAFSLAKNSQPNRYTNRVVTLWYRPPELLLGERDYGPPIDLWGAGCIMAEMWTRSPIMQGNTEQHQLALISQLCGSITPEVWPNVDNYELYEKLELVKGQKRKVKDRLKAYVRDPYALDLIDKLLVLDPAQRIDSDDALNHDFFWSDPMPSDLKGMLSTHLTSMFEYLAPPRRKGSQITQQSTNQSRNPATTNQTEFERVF
T1 sequence (O60563 whole entry partner): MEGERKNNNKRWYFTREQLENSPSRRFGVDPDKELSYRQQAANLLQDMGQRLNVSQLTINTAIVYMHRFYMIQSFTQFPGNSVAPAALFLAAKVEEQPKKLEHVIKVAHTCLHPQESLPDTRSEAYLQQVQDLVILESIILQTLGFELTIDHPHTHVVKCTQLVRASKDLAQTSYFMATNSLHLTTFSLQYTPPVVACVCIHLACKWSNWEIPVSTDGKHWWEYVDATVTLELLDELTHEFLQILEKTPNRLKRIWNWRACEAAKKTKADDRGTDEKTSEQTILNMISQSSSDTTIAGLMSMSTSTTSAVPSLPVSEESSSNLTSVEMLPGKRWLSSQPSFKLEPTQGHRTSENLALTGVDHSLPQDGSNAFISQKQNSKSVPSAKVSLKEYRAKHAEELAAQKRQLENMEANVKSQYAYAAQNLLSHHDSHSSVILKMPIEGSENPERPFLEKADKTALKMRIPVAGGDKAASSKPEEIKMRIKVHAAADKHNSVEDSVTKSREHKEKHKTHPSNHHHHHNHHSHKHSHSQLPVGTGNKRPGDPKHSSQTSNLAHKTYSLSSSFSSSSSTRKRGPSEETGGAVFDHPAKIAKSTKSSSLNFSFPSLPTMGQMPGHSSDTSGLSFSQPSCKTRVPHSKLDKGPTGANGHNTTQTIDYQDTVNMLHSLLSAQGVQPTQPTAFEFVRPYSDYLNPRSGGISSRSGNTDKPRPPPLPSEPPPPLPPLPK

Take `COc1cc(F)ccc1-c1cc(Nc2cc(CS(C)(=N)=O)ccn2)ncn1` (racemic) [Example 1, (rac)-6-(4-Fluoro-2-methoxyphenyl)-N-{4-[(S-methylsulfonimidoyl)methyl]pyridin-2-yl}pyrimidin-4-amine]: the IC50 in assay [1] stood at 5 nM; in assay [2] (Homo sapiens, 96 h), 335 nM; in assay [3] (Homo sapiens, DU-145, 96 h) it was 309 nM.

Regarding `COc1cc(F)ccc1-c1cc(Nc2cc(CS(C)(=N)=O)cc(Cl)n2)ncn1` (racemic) [Example 4, (rac)-N-{6-Chloro-4-[(S-methylsulfonimidoyl)methyl]pyridin-2-yl}-6-(4-fluoro-2-methoxyphenyl)pyrimidin-4-amine], the IC50 worked out at 4 nM in assay [1]; 97 nM in assay [2] (Homo sapiens, 96 h); 77 nM in assay [3] (Homo sapiens, DU-145, 96 h); 47 nM in assay [4] (Homo sapiens, MOLM-13, 72 h).

On to `COc1cc(F)ccc1-c1cc(Nc2cc(CS(C)(=N)=O)cc(C)n2)ncn1` (racemic) [Example 7, (rac)-6-(4-Fluoro-2-methoxyphenyl)-N-{6-methyl-4-[(S-methylsulfonimidoyl)methyl]pyridin-2-yl}pyrimidin-4-amine], for which the IC50 in assay [1] stood at 5 nM; in assay [2] (Homo sapiens, 96 h), 217 nM; in assay [3] (Homo sapiens, DU-145, 96 h) it was 121 nM; in assay [4] (Homo sapiens, MOLM-13, 72 h) it was 53 nM.

As to `COc1cc(F)ccc1-c1cc(Nc2cc(CS(C)(=N)=O)cc(C(F)(F)F)n2)ncn1` (racemic) [Example 10, (rac)-6-(4-Fluoro-2-methoxyphenyl)-N-{4-[(S-methylsulfonimidoyl)methyl]-6-(trifluoromethyl)pyridin-2-yl}pyrimidin-4-amine], the IC50 was found to be 5 nM in assay [1]; 104 nM in assay [2] (Homo sapiens, 96 h); 88 nM in assay [3] (Homo sapiens, DU-145, 96 h); 32 nM in assay [4] (Homo sapiens, MOLM-13, 72 h).

Regarding `COc1cc(F)ccc1-c1cc(Nc2cc(CS(C)(=N)=O)ccn2)ncn1` (single isomer, unassigned) [Example 2, 6-(4-Fluoro-2-methoxyphenyl)-N-{4-[(S-methylsulfonimidoyl)methyl]pyridin-2-yl}pyrimidin-4-amine], the IC50 in assay [1] amounted to 9 nM; in assay [4], 189 nM.

`COc1cc(F)ccc1-c1cc(Nc2cc(CS(C)(=N)=O)ccn2)ncn1` (single isomer, unassigned) [Example 3, 6-(4-Fluoro-2-methoxyphenyl)-N-{4-[(S-methylsulfonimidoyl)methyl]pyridin-2-yl}pyrimidin-4-amine]: the figures for the IC50 in assay [1] and in assay [4] were 4 nM and 80 nM, respectively.

Turning to `COc1cc(F)ccc1-c1cc(Nc2cc(CS(C)(=N)=O)cc(Cl)n2)ncn1` (single isomer, unassigned) [Example 5, N-{6-Chloro-4-[(S-methylsulfonimidoyl)methyl]pyridin-2-yl}-6-(4-fluoro-2-methoxyphenyl)pyrimidin-4-amine], the IC50 in assay [1] stood at 5 nM; in assay [2] (Homo sapiens, 96 h), 109 nM; in assay [3] (Homo sapiens, DU-145, 96 h), 105 nM; in assay [4] (Homo sapiens, MOLM-13, 72 h), 33 nM.

Turning to `COc1cc(F)ccc1-c1cc(Nc2cc(CS(C)(=N)=O)cc(Cl)n2)ncn1` (single isomer, unassigned) [Example 6, N-{6-Chloro-4-[(S-methylsulfonimidoyl)methyl]pyridin-2-yl}-6-(4-fluoro-2-methoxyphenyl)pyrimidin-4-amine], the IC50 came out at 4 nM in assay [1], 111 nM in assay [2], 110 nM in assay [3] and 44 nM in assay [4].

With `COc1cc(F)ccc1-c1cc(Nc2cc(CS(C)(=N)=O)cc(C)n2)ncn1` (single isomer, unassigned) [Example 8, 6-(4-Fluoro-2-methoxyphenyl)-N-{6-methyl-4-[(S-methylsulfonimidoyl)methyl]pyridin-2-yl}pyrimidin-4-amine], the IC50 in assay [1] turned out to be 4 nM; in assay [2] (Homo sapiens, 96 h), 112 nM; in assay [3] (Homo sapiens, DU-145, 96 h) it was 179 nM; in assay [4] (Homo sapiens, MOLM-13, 72 h), 64 nM.

Consider `COc1cc(F)ccc1-c1cc(Nc2cc(CS(C)(=N)=O)cc(C)n2)ncn1` (single isomer, unassigned) [Example 9, 6-(4-Fluoro-2-methoxyphenyl)-N-{6-methyl-4-[(S-methylsulfonimidoyl)methyl]pyridin-2-yl}pyrimidin-4-amine], for which the IC50 in assay [1] amounted to 4 nM; in assay [2] it was 178 nM; in assay [3] it was 126 nM; in assay [4], 43 nM.
